From patent US20150258197A1, “EUTECTIC ISOMETHEPTENE MUCATE” (TONIX PHARMA HOLDINGS LIMITED, priority 2014, published 2015)

How the values were obtained:
[1] = cited from earlier work
[2] = tested on: imidazoline-1 (I1) receptor; conditions: cited from earlier work
[3] = DSC/XRPD of binary mixtures of isometheptene mucate and mannitol (eutectic formation); type: physicochemical; conditions: binary mixtures at different ratios
Method: Because mannitol is a common excipient in solid drug formulations, it was examined for compatibility with racemic isometheptene mucate and investigated using DSC and the interactions occurring were assessed. […] To confirm the formation of a eutectic and to characterize its physical properties, several binary mixtures at different ratios of racemic isometheptene mucate and excipient were prepared and analyzed by DSC and by XRPD. The eutectic formation improved the cohesion between the racemic isometheptene mucate and excipient particles and assured better physical linking between the two.
In order to confirm the eutectic formation and to characterize its physical properties, several binary mixtures at different ratios of racemic isometheptene mucate-excipient were prepared and analyzed by DSC and by X-ray powder diffraction (XRPD). […] For each DSC heating curve, the onset temperature and the enthalpy were evaluated both for the eutectic contribute and for the excess of component. The recorded values were plotted and a phase diagram between the two components was obtained with a characteristic profile of phase diagrams of eutectic mixtures. […]
Aliquots of racemic isometheptene mucate API and mannitol were weighed in the ratios described below and ground in an agate mortar, and the homogeneous mixtures subsequently analyzed. […]

mice [4] = experiment: Formalin Test, late phase (licking score); type: in vivo; conditions: mouse, 5% formalin intraplantar, three doses p.o. 15 minutes before the test, 15-50 min after formalin
Text: (§1) Common mouse models for pain include the Formalin Test (Wheeler-Aceto, et al., Psychopharmacology, 104, 35-44, 1991), the Hot Plate Test (Eddy and Leimbach, J. Pharmacol. Exp. Ther., 107, 385-393, 1953), and the Tail-flick Test (D'Amour and Smith, J. Pharmacol. Exp. Ther., 1, 74-79, 1941). These methods detect analgesic activity of compositions of interest. In the Formalin Test, mice are given an intraplantar injection of 5% formalin into one posterior hindpaw to induce paw licking. Test compositions are given to the mice before treatment with formalin and the mice are evaluated and compared to a control group. In the Hot Plate Test, mice are placed onto a hot metal plate maintained at 54° C. and the latency to the first foot-lick is measured. As with the Formalin test, compositions of interest are given to the mice before the test and the mice are evaluated and compared to a control group. In the Tail-flick Test, a mouse's tail is heated by means of a thermal light source, and the latency before the animal withdraws its tail is measured. […]
Mice were given an intraplantar injection of 5% formalin (25 μL) into one posterior hindpaw. […] Mice were briefly observed at one minute intervals between 15 and 50 minutes after the injection of formalin and the number of occasions that the mice were observed licking the injected paw was recorded. […]

mice [5] = experiment: Hot Plate Test; type: in vivo; conditions: mouse, hot plate 54° C., 10, 30 and 100 mg/kg p.o. 15 minutes before the test
Text: as §1
Mice were placed onto a hot metal plate maintained at 54° C. surrounded by a Plexiglas cylinder (height: 13 cm; diameter: 19 cm). The latency to the first foot-lick was measured (maximum: 30 seconds). […]
Data with the test substance were analyzed by comparing treated groups with vehicle control using ANOVA followed by post-hoc Dunnett's tests. […]

mice [6] = experiment: Tail-flick Test; type: in vivo; conditions: mouse, thermal light source, three doses (10, 30, 100) p.o. 15 minutes before the test
Text: Common mouse models for pain include the Formalin Test (Wheeler-Aceto, et al., Psychopharmacology, 104, 35-44, 1991), the Hot Plate Test (Eddy and Leimbach, J. Pharmacol. Exp. Ther., 107, 385-393, 1953), and the Tail-flick Test (D'Amour and Smith, J. Pharmacol. Exp. Ther., 1, 74-79, 1941). These methods detect analgesic activity of compositions of interest. In the Formalin Test, mice are given an intraplantar injection of 5% formalin into one posterior hindpaw to induce paw licking. Test compositions are given to the mice before treatment with formalin and the mice are evaluated and compared to a control group. In the Hot Plate Test, mice are placed onto a hot metal plate maintained at 54° C. and the latency to the first foot-lick is measured. As with the Formalin test, compositions of interest are given to the mice before the test and the mice are evaluated and compared to a control group. In the Tail-flick Test, a mouse's tail is heated by means of a thermal light source, and the latency before the animal withdraws its tail is measured. Test compositions are administered before the test, and compared with a vehicle control group. The analgesic activity of the compositions described herein can be identified using the mouse formalin, hot plate, and tail-flick tests.
A method for detecting analgesic activity followed that described by D'Amour and Smith (J. Pharmacol. Exp. Ther., 1, 74-79, 1941). The mouse's tail was heated by means of a thermal light source (20 volts). The latency before the animal withdraws its tail was measured (maximum: 15 seconds).
Ten mice were studied per group. The test was performed partially blind.
The test substances selected from (R)-isometheptene mucate, and (S)-isometheptene mucate were evaluated at three doses ([…]), administered p.o. 15 minutes before the test, and compared with a vehicle control group. […]
Data with the test substance were analyzed by comparing treated groups with vehicle control using ANOVA followed by post-hoc Dunnett's tests. Data with the reference substance were analyzed using unpaired Student's t tests.

[7] = compared with (S)-isometheptene

CNC(C)CCC=C(C)C (racemic) [Racemic isometheptene, reference compound]
Heart rate and diastolic blood pressure ([1]; in vivo): increase

CN[C@H](C)CCC=C(C)C [(R)-isometheptene]
Binding affinity for the imidazoline-1 (I1) receptor [2]: significant binding affinity | I1 affinity relative to (S)-isometheptene [2, 7]: higher affinity | Potential adverse effects to the cardiovascular system relative to (S)-isometheptene [1, 7]: lower potential adverse effects

CNC(C)CCC=C(C)C.CNC(C)CCC=C(C)C.O=C(O)[C@@H](O)[C@H](O)[C@H](O)[C@@H](O)C(=O)O (racemic) [racemic isometheptene mucate, reference compound]
Interaction with mannitol (eutectic vs adduct) [3]: only a physical eutectic formation

CN[C@@H](C)CCC=C(C)C [(S)-isometheptene mucate]
Licking score compared to vehicle (mice [4]): reduction in licking score | Foot-licking latency compared to vehicle (mice [5]): longer foot-licking latency times | Tail flick latency compared to vehicle (mice [6]): longer tail flick latency times
